The values that follow come from ChEMBL document CHEMBL1130883, “Modeling, synthesis and biological activity of novel antifungal agents (1)” (Bioorg Med Chem Lett, 1998).

The test system of assay [1] is Candida albicans. Nature of the assay: Compound was tested in vitro for antifungal activity against Candida albicans (CY3003). It counts as functional.
In assay [2] the test system is Aspergillus fumigatus. The experiment in a line: Compound was tested in vitro for antifungal activity against Aspergillus fumigatus (CF1004). It counts as functional.
For a further assay, the system named is Cryptococcus neoformans. The experiment in a line: Compound was tested in vitro for antifungal activity against Cryptococcus neoformans (CY1057).
In assay [3] the target is Lanosterol 14-alpha demethylase (Candida albicans) (UniProt P10613). The experiment in a line: In vitro inhibition of cytochrome P450 lanosterol C14 demethylase in Candida albicans CY1005.
Lanosterol 14-alpha demethylase (Candida albicans), sequence (P10613 whole entry, looked up): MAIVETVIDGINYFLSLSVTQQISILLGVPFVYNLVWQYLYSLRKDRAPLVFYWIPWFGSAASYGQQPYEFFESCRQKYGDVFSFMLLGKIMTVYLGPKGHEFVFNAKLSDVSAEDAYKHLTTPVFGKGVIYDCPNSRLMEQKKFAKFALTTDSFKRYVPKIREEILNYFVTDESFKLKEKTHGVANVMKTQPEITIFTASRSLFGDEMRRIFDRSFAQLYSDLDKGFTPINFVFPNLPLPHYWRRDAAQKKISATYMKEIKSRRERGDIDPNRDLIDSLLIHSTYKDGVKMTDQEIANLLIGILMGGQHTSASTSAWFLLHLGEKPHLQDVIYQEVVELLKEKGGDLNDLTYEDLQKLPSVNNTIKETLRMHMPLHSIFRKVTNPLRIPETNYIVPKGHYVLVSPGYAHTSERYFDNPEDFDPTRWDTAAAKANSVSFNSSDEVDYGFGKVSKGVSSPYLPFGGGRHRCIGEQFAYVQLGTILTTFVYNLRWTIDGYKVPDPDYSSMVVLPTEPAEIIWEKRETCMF
The subject of assay [4] is Aspergillus fumigatus. The experiment in a line: Compound was tested in vitro for antifungal activity against Aspergillus fumigatus (CF1004) in experiment 2. It counts as functional.
The test system of assay [5] is Candida albicans. Nature of the assay: Compound was tested in vitro for antifungal activity against Cryptococcus neoformans (CY1057) in experiment 2. The format is functional.

≈ marks a conversion by molar mass, not a printed value.

As a reminder, the IC80 is the concentration at which the effect reaches the 80% level. Read a low IC80 as an effect from little substance. `COC1[C@@H](Cn2cncn2)[C@H](COc2ccc(OC(F)(F)F)cc2)CCC1(C)C` (stereo partly specified): the results for the IC80 in the assay with Candida albicans [1], with Aspergillus fumigatus [2] and with Cryptococcus neoformans were 0.18 µg/mL (≈ 0.435 µM), 56 µg/mL (≈ 135 µM) and 0.51 µg/mL (≈ 1.23 µM), respectively.
The corresponding values for `CC(=O)c1ccc(CC[C@@H]2CCC(C)(C)/C(=N/O)[C@H]2Cn2cncn2)cc1` are greater than 200 µg/mL, 60 µg/mL (≈ 163 µM) and greater than 200 µg/mL.
The corresponding values for `CCc1ccc(CC[C@@H]2CCC(C)(C)/C(=N/OC)[C@H]2Cn2cncn2)cc1` are 0.024 µg/mL (≈ 0.0651 µM), 0.064 µg/mL (≈ 0.174 µM) and 0.48 µg/mL (≈ 1.3 µM).
The corresponding values for `CO/N=C1\[C@@H](Cn2cncn2)[C@H](COc2ccc(OC(F)(F)F)cc2)CCC1(C)C` are 0.12 µg/mL (≈ 0.281 µM), 0.4 µg/mL (≈ 0.938 µM) and 7.6 µg/mL (≈ 17.8 µM).
For the compound `CC1(C)CC[C@@H](COc2ccc(OC(F)(F)F)cc2)[C@H](Cn2cncn2)C1OCCO` (stereo partly specified), the IC80 in the assay on Candida albicans [1] is 0.39 µg/mL (≈ 0.879 µM); in the assay with Aspergillus fumigatus [2], 110 µg/mL (≈ 248 µM); in the assay on Cryptococcus neoformans, 5.2 µg/mL (≈ 11.7 µM).
By IC50 is commonly meant the concentration at which inhibition is half-maximal. The low end stands for greater potency, the high end for weaker potency. Take `CCc1ccc(CC[C@@H]2CCC(C)(C)[C@H](OC)[C@H]2Cn2cncn2)cc1`: in assay [3], the IC50 came to 0.01 µg/mL (≈ 0.0281 µM). Moreover, the values for the 80% effect concentration (IC80) with Candida albicans [1], in the assay with Aspergillus fumigatus [2] and in the assay on Cryptococcus neoformans were 0.0042 µg/mL (≈ 0.0118 µM), greater than 200 µg/mL and 0.74 µg/mL (≈ 2.08 µM), respectively.
As for `CCc1ccc(CC[C@@H]2CCC(C)(C)/C(=N/O)[C@H]2Cn2cncn2)cc1`, the IC80 worked out at 0.023 µg/mL (≈ 0.0649 µM) in the assay on Candida albicans [1], 0.0011 µg/mL (≈ 0.0031 µM) with Aspergillus fumigatus [2] and 130 µg/mL (≈ 367 µM) in the assay with Cryptococcus neoformans.
As to `OC(Cn1cncn1)(Cn1cncn1)c1ccc(F)cc1F` [FLUCONAZOLE], the IC80 is greater than 200 µg/mL in the assay on Aspergillus fumigatus [4]; 2.6 µg/mL (≈ 8.49 µM) in the assay on Candida albicans [5]; 1.3 µg/mL (≈ 4.24 µM) in the assay on Candida albicans [1]; 150 µg/mL (≈ 490 µM) with Aspergillus fumigatus [2]; 6.2 µg/mL (≈ 20.2 µM) in the assay on Cryptococcus neoformans.
On to `CC1(C)CC[C@@H](COc2ccc(OC(F)(F)F)cc2)[C@H](Cn2cncn2)/C1=N\O`, for which the IC80 is 0.35 µg/mL (≈ 0.849 µM) in the assay with Candida albicans [1], 0.17 µg/mL (≈ 0.412 µM) with Aspergillus fumigatus [2] and greater than 200 µg/mL in the assay with Cryptococcus neoformans.
The corresponding values for `CCc1ccc(CC[C@@H]2CCC(C)(C)C(OCCO)[C@H]2Cn2cncn2)cc1` (stereo partly specified) are 0.00086 µg/mL (≈ 0.00223 µM), greater than 200 µg/mL and 0.36 µg/mL (≈ 0.934 µM).
The like results for `CC(O)c1ccc(CC[C@@H]2CCC(C)(C)/C(=N/O)[C@H]2Cn2cncn2)cc1` (stereo partly specified) were, in that order, greater than 200 µg/mL, 21 µg/mL (≈ 56.7 µM) and greater than 200 µg/mL.
